Measured values published in patent publication US9434701B2, “Aminoquinoxaline derivatives for treatment of neurodegenerative diseases” (CENTRE NATIONAL DE LA RECHERCHE SCIENTIFIQUE (CNRS), priority 2011, dated 2016).
Like-named read-outs stand apart in the source and are kept apart here.

Tests used:
Type in all cases: cell-based
[1] = system: dopaminergic neurons (TH+) of rat embryo ventral midbrain culture; experiment: dopaminergic neuron spontaneous degeneration model in culture, TH+ neuron count after 8 days (Schmidt et al. protocol); settings: Rattus norvegicus, Neuron, 192 h; compound at 100 nM; 8 days of culture; read-out: TH+ neurons in % of control ± SEM
Procedure: (§1) Quinoxaline derivatives were tested on a dopaminergic neuron spontaneous degeneration model in culture according to the protocol described in the article by F. Schmidt et al. […] This model consists of culturing rat embryo ventral midbrain. This part of the brain in culture contains a proportion of dopaminergic neurons of 5% of the total neurons; the other neurons are mainly GABAergic. These cultures are also composed of glial cells, i.e., astrocytes, oligodendrocytes and microglia. These cultures are characterized by progressive neuron death.

[2] = system: dopaminergic neurons (TH+) of rat embryo ventral midbrain culture; experiment: neuritogenic activity: neurite outgrowth per cell / differentiation of TH+ neurons; settings: Rattus norvegicus, Neuron; compound at 100 nM; read-out: Diff in % of control ± SEM
Procedure: as §1, with “death. […] To assess the neuritogenic activity of compounds according to the invention, neurite outgrowth per cell was quantified using the Neurite Outgrowth software developed by Xplora Nova. At least 60 neurons per condition were photographed and studied.” for “death.”

[3] = system: fetal dopaminergic neurons (TH+) in culture; experiment: dopaminergic neuron spontaneous degeneration model, second protocol (Mourlevat et al.), TH+ neuron count after 10 days; settings: Rattus norvegicus, 240 h, read-out: TH+ neurons in % of control ± Std. Err.
Procedure: This second protocol is described in the article by Mourlevat, P. P. Michel et al. Molecular Pharmacology 2003, 64:578-586 (“Prevention of Dopaminergic Neuronal Death by Cyclic AMP in Mixed Neuronal/Glial Mesencephalic Cultures Requires the Repression of Presumptive Astrocytes”). […] Compounds according to the invention were evaluated at 50 μM except compound 4bc which was assessed at 100 μM.

[4] = compound at 50 μM, 10 days of culture, one experiment in triplicate

| SMILES | activity at 0.1 µM [1] [%] | activity at 0.1 µM [2] [%] | activity at 50 µM [3, 4] [%] | further results |
| --- | --- | --- | --- | --- |
| CCCCCCc1nc2ccc(N)cc2nc1CCCC [Compound 4ed] | 115 | 104 |  |  |
| CCCCc1nc2cc(N)ccc2nc1C [Compound 4bd] | 121 | 102 |  |  |
| Cc1nc2ccc(N)c(Cl)c2nc1-c1ccccc1 [Compound 8bc] |  |  | 129 ± 8 |  |
| Nc1ccc2ncc(-c3ccccc3)nc2c1 [Compound 4ac] |  |  |  | activity at 50 µM [3]: 189 ± 11% |
| C#CCNc1ccc2nc(C)c(-c3ccccc3)nc2c1 [Compound 9bc] |  |  | 174 ± 15 |  |
| Cc1nc2ccc(N)c(Br)c2nc1-c1ccccc1 [Compound 7bc] |  |  | 153 ± 12 |  |
| C#CCNc1ccc2nc(C)c(-c3ccc(F)cc3)nc2c1 [Compound 9bm] |  |  | 166 ± 15 |  |
| COc1ccc(-c2nc3cc(N)ccc3nc2-c2ccccc2)cc1 [Compound 4ch] |  |  | 130 ± 10 |  |
| CCCCc1cnc2ccc(N)cc2n1 [Compound 4ad] | 101 | 118 |  |  |
